The assay deals with HCT116. Put plainly: HCT116 growth inhibition assay. Type of assay: cell-based. The following applies: without formate. As to the method:
Example 5. HCT116 Growth Inhibition and Formate Rescue Assays
3,000 Cells were plated in each well of a 96-well plate with 80 μL of DMEM media supplemented with 10% dFBS, and incubated for 24 hours. Drugs with or without sodium formate (1 mM) were then added to each well to a final volume of 100 μL. Cell growth was measured as fluorescence intensity by resazurin after four days. In short, resazurin was added to each well to a final concentration of 10 μg·mL^−1. After incubation for one hour, fluorescence was measured by a Synergy HT plate reader (BioTek Instruments).

As to `Cc1n[nH]c2c1C(c1cc(C#C[C@H]3C[C@H](C(C)(C)O)C3)cc(CO)c1)(C(C)C)C(C#N)=C(N)O2` (some centres unmarked) [KDG-0258-100], the IC50 result is “B″”.

As to `Cc1n[nH]c2c1C(c1cc(C#C[C@H]3C[C@@H](CO)C3)cc(C(C)(C)O)c1)(C(C)C)C(C#N)=C(N)O2` (some centres unmarked) [KDG-0260-100], the IC50 entry is given as “D″”.

Regarding `Cc1n[nH]c2c1C(c1cc(C#C[C@H]3C[C@H](C(C)(C)O)C3)cc(C(C)(C)O)c1)(C(C)C)C(C#N)=C(N)O2` (some centres unmarked) [KDG-0261], the IC50 entry is “C″”.

For `Cc1n[nH]c2c1C(c1cc(C#C[C@H]3C[C@@H](COC(N)=O)C3)cc(C(C)(C)O)c1)(C(C)C)C(C#N)=C(N)O2` (some centres unmarked) [KDG-0262-100], the IC50 result was “C″”.

For the compound `Cc1n[nH]c2c1C(c1cc(C#C[C@H]3C[C@@H](C(=O)N(C)C)C3)cc(CO)c1)(C(C)C)C(C#N)=C(N)O2` (some centres unmarked) [KDG-0265-100], the IC50 entry was “B″”.

For the compound `CC(=O)OCC1CC(C#Cc2cc(CO)cc(C3(C(C)C)C(C#N)=C(N)Oc4[nH]nc(C)c43)c2)C1` (centres unmarked) [KDG-0266], the IC50 result is “B″”.

Take `Cc1n[nH]c2c1C(c1cc(C#C[C@H]3C[C@@](C)(O)C3)cc(CO)c1)(C(C)C)C(C#N)=C(N)O2` (some centres unmarked) [KDG-0268]: the IC50 entry was “C″”.

`CC(=O)O[C@]1(C)C[C@H](C#Cc2cc(CO)cc(C3(C(C)C)C(C#N)=C(N)Oc4[nH]nc(C)c43)c2)C1` (some centres unmarked) [KDG-0269]: the IC50 result is recorded as “B″”.

As to `Cc1n[nH]c2c1C(c1cc(C#CC3CCC(=O)CC3)cc(CO)c1)(C(C)C)C(C#N)=C(N)O2` (centres unmarked) [KDG-0270-100], the IC50 result is “B″”.

On to `Cc1n[nH]c2c1C(c1cc(C#CC3CN(C(=O)OC(C)(C)C)C3)cc(CO)c1)(C(C)C)C(C#N)=C(N)O2` (centres unmarked) [KDG-0271-0-pk1], for which the IC50 entry is reported as “A″”.

Consider `Cc1n[nH]c2c1C(c1cc(C#CC3CN(C(=O)OC(C)(C)C)C3)cc(CO)c1)(C(C)C)C(C#N)=C(N)O2` (centres unmarked) [KDG-0271-0-pk2], for which the IC50 result is “D″”.

On to `Cc1n[nH]c2c1C(c1cc(C#CC3CNC3)cc(CO)c1)(C(C)C)C(C#N)=C(N)O2` (centres unmarked) [KDG-0271-200], for which the IC50 entry is listed as “D″”.

`CC(=O)O[C@]1(C)CC[C@H](C#Cc2cc(CO)cc(C3(C(C)C)C(C#N)=C(N)Oc4[nH]nc(C)c43)c2)CC1` (some centres unmarked) [KDG-0272]: the IC50 entry is recorded as “A″”.

In the case of `COC(=O)N1CC(C#Cc2cc(CO)cc(C3(C(C)C)C(C#N)=C(N)Oc4[nH]nc(C)c43)c2)C1` (centres unmarked) [KDG-0281], the IC50 entry was “B″”.

On to `CC(=O)OCc1cc(C#CC2CN(C(=O)OC(C)(C)C)C2)cc(C2(C(C)C)C(C#N)=C(N)Oc3[nH]nc(C)c32)c1` (centres unmarked) [KDG-0284], for which the IC50 entry is given as “B″”.

For `Cc1n[nH]c2c1C(c1cc(C#CC3CCN(C(=O)OC(C)(C)C)C3)cc(CO)c1)(C(C)C)C(C#N)=C(N)O2` (centres unmarked) [KDG-0287], the IC50 result is on record as “B″”.

For the compound `Cc1n[nH]c2c1C(c1cc(C#CC3CCCN(C(=O)OC(C)(C)C)C3)cc(CO)c1)(C(C)C)C(C#N)=C(N)O2` (centres unmarked) [KDG-0288], the IC50 result is listed as “C″”.

Consider `Cc1n[nH]c2c1C(c1cc(C#CC3CN(C(=O)OC(C)(C)C)C3)cc(COC(=O)C(C)C)c1)(C(C)C)C(C#N)=C(N)O2` (centres unmarked) [KDG-0293], for which the IC50 result is recorded as “A″”.

For `Cc1n[nH]c2c1C(c1cc(C#CC3CN(C(=O)OC(C)(O)O)C3)cc(COC(=O)C(N)C(C)O)c1)(C(C)C)C(C#N)=C(N)O2` (centres unmarked) [KDG-0294], the IC50 entry is reported as “B″”.

For `Cc1n[nH]c2c1C(c1cc(C#CC3(C)CCN(C(=O)OC(C)(C)C)C3)cc(CO)c1)(C(C)C)C(C#N)=C(N)O2` (centres unmarked) [KDG-0304], the IC50 result is recorded as “B″”.

As to `COC(=O)N1CCC(C)(C#Cc2cc(CO)cc(C3(C(C)C)C(C#N)=C(N)Oc4[nH]nc(C)c43)c2)CC1` (centres unmarked) [KDG-0308], the IC50 result was “B″”.

`Cc1n[nH]c2c1C(c1cc(C#C[C@H]3C[C@@H](NC(=O)OC(C)(C)C)C3)cc(CF)c1)(C(C)C)C(C#N)=C(N)O2` (some centres unmarked) [KDG-0383]: the IC50 entry is “B″”.

For the compound `Cc1n[nH]c2c1C(c1cc(C#C[C@H]3C[C@H](NC(=O)OC(C)(C)C)C3)cc(CO)c1)(C(C)C)C(C#N)=C(N)O2` (some centres unmarked) [KDG-0385, tert-butyl N-[(1r,3r)-3-[2-(3-[6-amino-5-cyano-4-isopropyl-3-methyl-1H-pyrano[2,3-c]pyrazol-4-yl]-5-(hydroxymethyl)phenyl)ethynyl]cyclobutyl]carbamate], the IC50 entry is reported as “B″”.

For `Cc1n[nH]c2c1C(c1cc(C#C[C@H]3C[C@](C)(NC(=O)OC(C)(C)C)C3)cc(CO)c1)(C(C)C)C(C#N)=C(N)O2` (some centres unmarked) [KDG-0387], the IC50 result was “B″”.

Turning to `Cc1n[nH]c2c1C(c1cc(C#C[C@H]3C[C@H](NC(=O)OC(C)(C)C)C3)cc(CF)c1)(C(C)C)C(C#N)=C(N)O2` (some centres unmarked) [KDG-0390], the IC50 entry is listed as “B″”.

For `Cc1n[nH]c2c1C(c1cc(C#C[C@H]3C[C@@H](CNC(=O)OC(C)(C)C)C3)cc(CO)c1)(C(C)C)C(C#N)=C(N)O2` (some centres unmarked) [KDG-0395-100], the IC50 result is reported as “B″”.

`Cc1n[nH]c2c1C(c1cc(C#C[C@H]3C[C@H](CNC(=O)OC(C)(C)C)C3)cc(CO)c1)(C(C)C)C(C#N)=C(N)O2` (some centres unmarked) [KDG-0395]: the IC50 result is “B″”.

Turning to `CCC(C)(C)OC(=O)N1CC(C#Cc2cc(CO)cc(C3(C(C)C)C(C#N)=C(N)Oc4[nH]nc(C)c43)c2)C1` (centres unmarked) [KDG-0411], the IC50 result is given as “B″”.

`Cc1n[nH]c2c1C(c1cc(C#CC3CN(C(=O)OC(C)C)C3)cc(CO)c1)(C(C)C)C(C#N)=C(N)O2` (centres unmarked) [KDG-0416]: the IC50 entry is on record as “A″”.

Turning to `COCC(C)(C)OC(=O)N1CC(C#Cc2cc(CO)cc(C3(C(C)C)C(C#N)=C(N)Oc4[nH]nc(C)c43)c2)C1` (centres unmarked) [KDG-0418], the IC50 entry is “B″”.

With `Cc1nnc(N[C@H]2CC[C@@H](C#Cc3cc(CO)cc(C4(C(C)C)C(C#N)=C(N)Oc5[nH]nc(C)c54)c3)CC2)o1` (some centres unmarked) [KDG-0516], the IC50 result was “C″”.

For the compound `Cc1nnc(N[C@H]2CC[C@H](C#Cc3cc(CO)cc(C4(C(C)C)C(C#N)=C(N)Oc5[nH]nc(C)c54)c3)CC2)o1` (some centres unmarked) [KDG-0518], the IC50 result is “C″”.

As for `Cc1n[nH]c2c1C(c1cc(C#C[C@H]3C[C@@H](NC(=O)OC(C)C)C3)cc(CO)c1)(C(C)C)C(C#N)=C(N)O2` (some centres unmarked) [KDG-0520], the IC50 entry is “A″”.

Regarding `Cc1n[nH]c2c1C(c1cc(C#C[C@H]3C[C@@H](NC(=O)OCc4ccccc4)C3)cc(CO)c1)(C(C)C)C(C#N)=C(N)O2` (some centres unmarked) [KDG-0521], the IC50 result is “A″”.

As to `COC(=O)N[C@H]1C[C@H](C#Cc2cc(CO)cc(C3(C(C)C)C(C#N)=C(N)Oc4[nH]nc(C)c43)c2)C1` (some centres unmarked) [KDG-0522-100], the IC50 entry was “B″”.

As to `COC(=O)N[C@H]1C[C@@H](C#Cc2cc(CO)cc(C3(C(C)C)C(C#N)=C(N)Oc4[nH]nc(C)c43)c2)C1` (some centres unmarked) [KDG-0522], the IC50 entry is on record as “B″”.

Turning to `Cc1n[nH]c2c1C(c1cc(C#C[C@H]3C[C@@H](NC(=O)NC(C)(C)C)C3)cc(CO)c1)(C(C)C)C(C#N)=C(N)O2` (some centres unmarked) [KDG-0523], the IC50 result is listed as “B″”.

Consider `Cc1n[nH]c2c1C(c1cc(C#C[C@H]3C[C@@H](NC(=O)OCC(C)(C)C)C3)cc(CO)c1)(C(C)C)C(C#N)=C(N)O2` (some centres unmarked) [KDG-0524], for which the IC50 result is recorded as “B″”.

On to `Cc1n[nH]c2c1C(c1cc(C#C[C@H]3C[C@@H](NC(=O)C(C)(C)C)C3)cc(CO)c1)(C(C)C)C(C#N)=C(N)O2` (some centres unmarked) [KDG-0526], for which the IC50 result is reported as “B″”.

As for `Cc1n[nH]c2c1C(c1cc(C#C[C@H]3C[C@@H](NC(=O)CC(C)(C)C)C3)cc(CO)c1)(C(C)C)C(C#N)=C(N)O2` (some centres unmarked) [KDG-0527], the IC50 result is listed as “B″”.

For `Cc1n[nH]c2c1C(c1cc(C#C[C@H]3C[C@@H](NCC(=O)N(C)C)C3)cc(CO)c1)(C(C)C)C(C#N)=C(N)O2` (some centres unmarked) [KDG-0530], the IC50 entry is on record as “D″”.

Source of the values: patent US20230382920A1, “SHMT Inhibitors” (The Trustees of Princeton University, priority 2020, published 2023).
